Tests used:
HL-60 = experiment: Cytotoxicity against human HL60 cell line after 48 hrs by MTT assay; type: cell-based; conditions: HL-60, 48 h
HT-29 = experiment: Cytotoxicity against human HT29 cell line after 48 hrs by MTT assay; type: cell-based; conditions: HT-29, 48 h
K562 = experiment: Cytotoxicity against human K562 cells after 48 hrs by MTT assay; type: cell-based; conditions: K562, 48 h
Jurkat = experiment: Cytotoxicity against human Jurkat T cells after 48 hrs by MTT assay; type: cell-based
Raji = experiment: Cytotoxicity against human Raji cells after 48 hrs by MTT assay; type: cell-based
MRC5 = experiment: Cytotoxicity against human MRC5 cell line after 48 hrs by MTT assay; type: functional, cell-based; conditions: MRC5, 48 h
MCF7 = experiment: Cytotoxicity against human MCF7 cell line after 48 hrs by MTT assay; type: cell-based; conditions: MCF7, 48 h

SMILES | IC50 (HL-60) | IC50 (HT-29) | IC50 (K562) | IC50 (Jurkat) | IC50 (Raji) | IC50 (MRC5) | IC50 (MCF7)
NC(=O)c1csc([C@@H]2O[C@H](CO)[C@H]3O[C@H]32)n1 | 2.08 µM | > 100 µM | 0.19 µM | 4.84 µM | 0.54 µM | > 100 µM | 0.96 µM
NC(=O)c1csc(C[C@@H]2O[C@H](CO)[C@H]3O[C@H]32)n1 | 3.5 µM | 0.09 µM | 0.49 µM | 2.18 µM | 0.07 µM | > 100 µM | 9.09 µM
NC(=O)c1csc(C[C@H]2O[C@H](CO)[C@H]3O[C@H]32)n1 | > 100 µM | 0.53 µM | 0.09 µM | 11 µM | > 100 µM | > 100 µM | 10 µM
NC(=O)c1csc([C@@H]2O[C@H](CO)[C@@H](O)[C@H]2O)n1 [TIAZOFURIN] | 1.84 µM | 0.89 µM | – | 0.51 µM | 16.1 µM | 0.49 µM | 6.39 µM

From ChEMBL document CHEMBL1145393, “Synthesis and antitumour activity of new tiazofurin analogues bearing a 2,3-anhydro functionality in the furanose ring” (Bioorg Med Chem Lett, 2007)
